Test results as given in patent US20240140931A1, “TRICYCLIC COMPOUNDS AND USES THEREOF” (HUTCHMED LIMITED, priority 2021, published 2024).

Columns and labels:
[1] = tested on: pERK1/2 (Thr202/Tyr204) in Miapaca2 cells; experiment: Assay of intracellular pERK1/2 (Thr202/Tyr204) phosphorylation; type: cell-based; conditions: pERK1/2 (Thr202/Tyr204) HTRF
Procedure, shortened: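 HTRF read-out (665/615 nm) of phospho-ERK1/2 Thr202/Tyr204 in lysates from Miapaca2 cells exposed for 2 h to 3-fold compound dilutions at 0.5% final DMSO. Controls: lysis buffer without cells and DMSO-treated cells; IC50 from four-parameter logistic fit.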

[2] = target: Human full-length SHP2 recombinant protein (Homo sapiens (Human), UniProt Q06124); experiment: Assay of full-length SHP2 phosphatase activity; type: biochemical; conditions: DiFMUP substrate, with activating peptide
Procedure, shortened: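 Readout: DiFMUP hydrolysis fluorescence (355/460 nm) after 60 min at 25 °C, following 30 min RT preincubation of compound with peptide-activated full-length human SHP2. Controls were 1% DMSO with or without enzyme; IC50 by four-parameter logistic fit.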

Miapaca2 3D spheroids = experiment: Assay of cell proliferation on Miapaca2 3D spheroids; type: cell-based; conditions: CellTiter-Glo 3D, 5 days treatment
Procedure, shortened: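 Miapaca2 spheroids (300 cells/well, formed by day 2) exposed 5 days at 37 °C to compound in 3-fold dilution series, 0.1% DMSO final. Viability by CellTiter-Glo 3D luminescence; survival % relative to day-2 and day-7 DMSO controls, IC50 from four-parameter logistic fit.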

[3] = Homo sapiens, MIA PaCa-2, 120 h

Row | SMILES | IC50 ([1]; Homo sapiens, MIA PaCa-2, 2 h) [nM] | IC50 [2] [nM] | IC50 (Miapaca2 3D spheroids; [3]) [nM] | IC50 ([1]; 2 hours) [nM] | IC50 (Miapaca2 3D spheroids) [nM]
1 | CCNC(=O)C#Cc1ccc2c(c1)[C@@H](N)C1(CCN(c3cnc(Sc4ccnc(N)c4Cl)cn3)CC1)C2 [Compound 155] | 2 | 1 | 0.9 |  | 
2 | CNC(=O)C#Cc1ccc2c(c1)[C@@H](N)C1(CCN(c3cc(=O)n(-c4cccc(Cl)c4Cl)c(C)n3)CC1)C2 [Compound 173] | 18 | 1 | 24 |  | 
3 | CCNC(=O)C#Cc1ccc2c(c1)[C@@H](N)C1(CCN(c3cnc(Sc4cc(N)nc(Cl)c4Cl)cn3)CC1)C2 [Compound 256] | 12 | 4 | 6 |  | 
4 | C#Cc1ccc2c(c1)[C@@H](N)C1(CCN(c3nc(C)n(-c4cccc(Cl)c4Cl)c(=O)c3F)CC1)C2 [Compound 165] | 39 | 6 | 71 |  | 
5 | CNC(=O)C#Cc1ccc2c(c1)[C@@H](N)C1(CCN(c3cc(=O)n(-c4ccc(F)c(F)c4Cl)c(C)n3)CC1)C2 (atropisomer, axis not shown) [Compound 209] |  | 1 |  | 19 | 38
6 | C#Cc1ccc2c(c1)[C@@H](N)C1(CCN(c3cc(=O)n(-c4cccc(Cl)c4Cl)c(N)n3)CC1)C2 [Compound 245] | 12 | < 0.5 | 17 |  | 
7 | CNC(=O)C#Cc1ccc2c(c1)[C@@H](N)C1(CCN(c3cc(=O)n(-c4ccc(F)c(F)c4Cl)c(C)n3)CC1)C2 [Compound 202] |  | 1 | 46 | 40 | 
8 | COCC#Cc1ccc2c(c1)[C@@H](N)C1(CCN(c3ncc(Sc4ccnc(N)c4Cl)c(=O)n3C)CC1)C2 [Compound 291] | 9 | 1 | 0.3 |  | 
9 | CCNC(=O)C#Cc1ccc2c(c1)[C@@H](N)C1(CCN(c3cnc(Sc4c(F)cnc(N)c4Cl)cn3)CC1)C2 [Compound 269] | 7 | 0.9 | 3 |  | 
10 | COCC#Cc1cc(F)c2c(c1)[C@@H](N)C1(CCN(c3ncc(Sc4ccnc(N)n4)c4nccn34)CC1)C2 [Compound 171] | 38 | 6 | 39 |  | 
11 | COCCN(C)C(=O)C#Cc1ccc2c(c1)[C@@H](N)C1(CCN(c3cnc(Sc4ccnc(N)c4Cl)cn3)CC1)C2 [Compound 301] | 5 | 0.4 | 1 |  | 
12 | Cc1nc(N2CCC3(CC2)Cc2ccc(C#CC(=O)N(C)C)cc2[C@H]3N)cc(=O)n1-c1cccc(Cl)c1Cl [Compound 194] | 18 | 1 | 36 |  | 
13 | CNC(=O)C#Cc1ccc2c(c1)[C@@H](N)C1(CCN(c3ncc(Sc4ccnc(N)c4Cl)nn3)CC1)C2 [Compound 250] | 72 | 1 | 14 |  | 
14 | C#Cc1ccc2c(c1)[C@@H](N)C1(CCN(c3cc(=O)n(-c4ccc(C#N)c(OC)c4Cl)c(C)n3)CC1)C2 (atropisomer, axis not shown) [Compound 191] |  | 1 |  | 21 | 58

Continued, values first:

Row | IC50 ([1]; Homo sapiens, MIA PaCa-2, 2 h) [nM] | IC50 [2] [nM] | IC50 (Miapaca2 3D spheroids; [3]) [nM] | IC50 ([1]; 2 hours) [nM] | IC50 (Miapaca2 3D spheroids) [nM] | SMILES
15 | 2 | 1 | 1 |  |  | C#Cc1ccc2c(c1)[C@@H](N)C1(CCN(c3ncc(Sc4ccnc(N)c4Cl)c(=O)n3C)CC1)C2 [Compound 299, (S)-5-((2-amino-3-chloropyridin-4-yl)thio)-2-(1-amino-6-ethynyl-1,3-dihydrospiro[indene-2,4′-piperidin]-1′-yl)-3-methylpyrimidin-4(3H)-one]
16 | 2 | 0.4 | 0.6 |  |  | NC(=O)C#Cc1ccc2c(c1)[C@@H](N)C1(CCN(c3cnc(Sc4ccnc(N)c4Cl)cn3)CC1)C2 [Compound 270]
17 | 6 | 1 | 3 |  |  | Cc1nc(Sc2ccnc(N)c2F)c(N)nc1N1CCC2(CC1)Cc1ccc(C#CC(N)=O)cc1[C@H]2N [Compound 274]
18 | 31 | 10 | 7.4 |  |  | Nc1nc(N2CCC3(CC2)Cc2ccc(C#CC(=O)NC4CC4)cc2[C@H]3N)c(Cl)nc1Sc1ccnc(N)c1Cl [Compound 230]
19 | 10 | 1.2 | 3.8 |  |  | C#Cc1ccc2c(c1)[C@@H](N)C1(CCN(c3nc(N)c(Sc4ccnc(N)c4Cl)nc3C)CC1)C2 [Compound 241]
20 | 2 | 0.5 | 2 |  |  | NC(=O)C#Cc1ccc2c(c1)[C@@H](N)C1(CCN(c3cnc(Sc4ccnc(N)c4F)c(N)n3)CC1)C2 [Compound 275]
21 | 6 | 2 | 2 |  |  | Cc1nc(Sc2ccnc(N)c2Cl)c(N)nc1N1CCC2(CC1)Cc1ccc(C#CC(=O)NC3CC3)cc1[C@H]2N [Compound 225]
22 | 34 | 5 | 16 |  |  | CCNC(=O)C#Cc1ccc2c(c1)[C@@H](N)C1(CCN(c3ncc(Sc4ccnc(N)c4Cl)nc3C#N)CC1)C2 [Compound 278]
